Measured values: patent US5705508A, “Anti-tumor compounds, pharmaceutical compositions, methods for preparation thereof and for treatment” (priority 1995, dated 1998)
Entries after “also recorded” stand apart in the source; their conditions may differ. Read-outs that look alike come from different tables or passages of the source.

How the values were obtained:
A121 (ovarian cancer) = assay: Anticancer activity, inhibition of cell proliferation, A121 (ovarian); type: cell-based; details: Homo sapiens
Method: (§1) Compounds SB-T-101131, SB-T-101133, SB-T-101134, SB-T-10114, SB-T-101141, SB-T-101142, SB-T-101143, SB-T-101144, SB-T-101146, SB-T-101151 and SB-T-101161 were prepared according to the protocols described in Examples 59 and 60 above. These compounds were evaluated for cancer activity against human cancer cell lines of A121 (ovarian cancer), A549 (non-small cell lung cancer), HT-29 (colon cancer), MCF7 (breast cancer), and MCF7-R (adriamycin resistant breast cancer). Table 1 below illustrates the activity of these compounds as IC50 values in a nM concentration.
(§2) […] ACTIVITY OF NEW TAXANES (IC50 nM).
(§3) ^a IC50 represents the concentration that inhibits 50% of cell
(§4) proliferation. ^b MCF7R = mammary carcinoma cells 180 fold resistant
(§5) The cytotoxicities of the new taxanes shown in FIG. 1 hereto and listed in Table 1 were evaluated in vitro against human cancer cell lines according to methods more particularly described in Ojima, I., et al., "Structure--Activity Relationships of New Taxoids Derived from 14β-Hydroxy-10-Deacetyl/Baccatin III," Journal of Medicinal Chemistry, 37, 1408-1410 (1994) and Ojima, I., et al., "Synthesis and Biological Activity of 14-hydroxydocetaxel," Bioorganic and Medicinal Chemistry Letters, 4, 1571-1576 (1994) the contents of which are incorporated herein by reference as if set forth in full.

[1] = system: A549 (non-small cell lung cancer); assay: Anticancer activity, inhibition of cell proliferation, A549 (NSCLC); type: cell-based; details: Homo sapiens
Method: as §1, §2, §3, §4, §5

HT-29 (colon cancer) = assay: Anticancer activity, inhibition of cell proliferation, HT-29 (colon); type: cell-based; details: Homo sapiens
Method: as §1, §2, §3, §4, §5

MCF7 (breast cancer) = assay: Anticancer activity, inhibition of cell proliferation, MCF7 (breast); type: cell-based; details: Homo sapiens
Method: as §1, §2, §3, §4, §5

[2] = system: MCF7-R (adriamycin resistant breast cancer); assay: Anticancer activity, inhibition of cell proliferation, MCF7-R (adriamycin resistant breast); type: cell-based; details: Homo sapiens, MCF7R, read-out: IC50, MCF7-R
Method: as §1, with “cancer).” for “cancer). Table 1 below illustrates the activity of these compounds as IC50 values in a nM concentration.”
as §3, §4, §5

[3] = aqueous media, cited from earlier work
[4] = clinical trials; cited from earlier work
different cancers = details: background statement; cited from earlier work
[5] = compared with Taxol; listed as Taxotere; cited from earlier work
[6] = concentration that inhibits 50% of cell proliferation, A121 (ovarian), read-out: IC50, A121 (ovarian)
[7] = concentration that inhibits 50% of cell proliferation, A549 (NSCLC), read-out: IC50, A549 (NSCLC)
[8] = concentration that inhibits 50% of cell proliferation, HT-29 (colon), read-out: IC50, HT-29 (colon)
[9] = concentration that inhibits 50% of cell proliferation, MCF7 (breast), read-out: IC50, MCF7 (breast)
[10] = concentration that inhibits 50% of cell proliferation, mammary carcinoma cells 180 fold resistant to adriamycin

SMILES | IC50 (A121 (ovarian cancer); [6]) [nM] | IC50 [1, 7] [nM] | IC50 (HT-29 (colon cancer); [8]) [nM] | IC50 (MCF7 (breast cancer); [9]) [nM] | IC50 [2, 10] [nM] | further results
CCC(=O)OC1C(=O)C2(C)C(O)CC3OCC3(OC(C)=O)C2C(OC(=O)c2ccccc2)C23OC(=O)OC2C(OC(=O)C(O)C(C=C(C)C)NC(=O)OC(C)(C)C)C(C)=C1C3(C)C (stereo not drawn) [SB-T-101142] | 0.7 | 0.5 | 0.6 | 0.1 | 21 | 
CC(=O)O[C@@]12CO[C@@H]1C[C@H](O)[C@@]1(C)C(=O)[C@H](O)C3=C(C)[C@@H](OC(=O)[C@H](O)[C@@H](NC(=O)OC(C)(C)C)c4ccccc4)C[C@@](O)([C@@H](OC(=O)c4ccccc4)[C@H]21)C3(C)C [Docetaxel] | 1.2 | 1 | 1.2 | 1 |  | water solubility [3]: somewhat improved water solubility; side effects [4]: mouth sores and a plunge in white blood cell count; cytotoxicity and antitumor activity (different cancers): antitumor activity superior to Taxol; bioavailability / pharmacological properties [5]: better pharmacological properties than Taxol; also recorded: better bioavailability
CC(=O)OC1C(=O)C2(C)C(O)CC3OCC3(OC(C)=O)C2C(OC(=O)c2ccccc2)C23OC(=O)OC2C(OC(=O)C(O)C(C=C(C)C)NC(=O)OC(C)(C)C)C(C)=C1C3(C)C (stereo not drawn) [SB-T-101141] | 1.5 | 1.4 | 2.4 | 3.3 | 36 | 
CC(=O)OC12COC1CC(O)C1(C)C(=O)C(OC(=O)N(C)C)C3=C(C)C(OC(=O)C(O)C(C=C(C)C)NC(=O)OC(C)(C)C)C4OC(=O)OC4(C(OC(=O)c4ccccc4)C21)C3(C)C (stereo not drawn) [SB-T-101144] | 0.7 | 0.6 | 1.2 | 0.2 | 22 | 
CC(=O)OC12COC1CC(O)C1(C)C(=O)C(OC(=O)N(C)C)C3=C(C)C(OC(=O)C(O)C(CC(C)C)NC(=O)OC(C)(C)C)C4OC(=O)OC4(C(OC(=O)c4ccccc4)C21)C3(C)C (stereo not drawn) [SB-T-101134] |  |  |  |  |  | IC50 (A121 (ovarian cancer); A121, read-out: IC50, A121 (ovarian)): 0.6 nM; IC50 ([1]; A549, read-out: IC50, A549 (NSCLC)): 0.6 nM; IC50 (HT-29 (colon cancer); HT-29, read-out: IC50, HT-29 (colon)): 1.3 nM; IC50 (MCF7 (breast cancer); MCF7, read-out: IC50, MCF7 (breast)): 0.6 nM; IC50 [2]: 22 nM
CC(=O)OC12COC1CC(O)C1(C)C(=O)C(O)C3=C(C)C(OC(=O)C(O)C(C=C(C)C)NC(=O)OC(C)(C)C)C4OC(=O)OC4(C(OC(=O)c4ccccc4)C21)C3(C)C (stereo not drawn) [SB-T-10114] | 1.7 | 0.2 | 0.5 | 0.5 | 54 | 
CC(=O)OC1C(=O)C2(C)C(O)CC3OCC3(OC(C)=O)C2C(OC(=O)c2ccccc2)C23OC(=O)OC2C(OC(=O)C(O)C(NC(=O)OC(C)(C)C)c2ccco2)C(C)=C1C3(C)C (stereo not drawn) [SB-T-101161] | 0.4 | 0.5 | 0.6 | 0.5 | 58 | 
CC(=O)OC12COC1CC(O)C1(C)C(=O)C(OC(=O)C3CC3)C3=C(C)C(OC(=O)C(O)C(C=C(C)C)NC(=O)OC(C)(C)C)C4OC(=O)OC4(C(OC(=O)c4ccccc4)C21)C3(C)C (stereo not drawn) [SB-T-101143] | 0.5 | 0.5 | 1 | 0.2 | 24 | 
CC(=O)O[C@H]1C(=O)[C@@]2(C)[C@H]([C@H](OC(=O)c3ccccc3)[C@]34OC(=O)O[C@H]3[C@H](OC(=O)[C@H](O)[C@H](CC(C)C)NC(=O)OC(C)(C)C)C(C)=C1C4(C)C)[C@]1(OC(C)=O)CO[C@@H]1C[C@@H]2O [SB-T-101131] | 1.2 | 0.7 | 1.5 | 1.1 | 36 | 
COC(=O)OC1C(=O)C2(C)C(O)CC3OCC3(OC(C)=O)C2C(OC(=O)c2ccccc2)C23OC(=O)OC2C(OC(=O)C(O)C(C=C(C)C)NC(=O)OC(C)(C)C)C(C)=C1C3(C)C (stereo not drawn) [SB-T-101146] | 0.6 | 0.5 | 0.7 | 0.3 | 38 | 
CC(=O)OC12COC1CC(O)C1(C)C(=O)C(OC(=O)C3CC3)C3=C(C)C(OC(=O)C(O)C(CC(C)C)NC(=O)OC(C)(C)C)C4OC(=O)OC4(C(OC(=O)c4ccccc4)C21)C3(C)C (stereo not drawn) [SB-T-101133] | 1.1 | 1.2 | 3.3 | 0.7 | 22 | 
CC(=O)O[C@H]1C(=O)[C@@]2(C)[C@H]([C@H](OC(=O)c3ccccc3)[C@]3(O)C[C@H](OC(=O)[C@H](O)[C@@H](NC(=O)c4ccccc4)c4ccccc4)C(C)=C1C3(C)C)[C@]1(OC(C)=O)CO[C@@H]1C[C@@H]2O [Paclitaxel, reference compound] | 6.1 | 3.6 | 3.2 | 1.7 | 300 | water solubility ([3]; listed as Taxol): limited solubility in aqueous media; also recorded: poor water solubility; side effects [4]: nerve damage, muscle pain or disturbances in heart rhythm; cytotoxicity and antitumor activity (different cancers): high cytotoxicity and strong antitumor activity
CC(=O)O[C@@]12CO[C@@H]1C[C@H](O)[C@@]1(C)C(=O)[C@H](O)C3=C(C)[C@@H](O)[C@H](O)[C@@](O)([C@@H](OC(=O)c4ccccc4)[C@H]21)C3(C)C [14-OH-DAB, 14-Hydroxy-10-deacetylbaccatin III] |  |  |  |  |  | water solubility [3]: much higher water solubility than the usual 10-deacetylbaccatin III
CC=CC(NC(=O)OC(C)(C)C)C(O)C(=O)OC1C(C)=C2C(OC(C)=O)C(=O)C3(C)C(O)CC4OCC4(OC(C)=O)C3C(OC(=O)c3ccccc3)C3(OC(=O)OC13)C2(C)C (stereo not drawn) [SB-T-101151] | 2.4 | 0.4 | 3 | 1.6 | 49 | 
